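Grown in 96-well plates, cells were treated for 48 hours with each compound at five concentrations. Insufficient inhibition: endpoint recorded as highest concentration tested. TGI denotes the concentration required for complete inhibition of growth.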
Experiments:
Assay in all cases: NCI anticancer screen, dose series, 48 h
[1] = system: SK-OV-3 ovarian
[2] = system: NCI-H460 lung
[3] = system: OVCAR-8 ovarian
[4] = system: BT-549 breast
[5] = system: MOLT-4 leukemia
[6] = system: HCT-116 colon
[7] = system: M14 melanoma
[8] = system: SNB-75 CNS
[9] = system: NCI-H226 lung
[10] = system: MDA-MB-231 breast
[11] = system: RPMI-8226 leukemia
[12] = system: OVCAR-3 ovarian
[13] = system: SF-539 CNS
[14] = system: K-562 leukemia
[15] = system: MCF7 breast
[16] = system: HOP-92 NSCLC
[17] = system: UACC-257 melanoma
[18] = system: NCI-H522 lung
[19] = system: SNB-19 CNS
[20] = system: NCI/ADR-RES ovarian
[21] = system: HCT-15 colon
[22] = system: SW-620 colon
[23] = system: CCRF-CEM leukemia
[24] = system: HOP-62 NSCLC
[25] = system: EKVX NSCLC
[26] = system: HT29 colon
[27] = system: RXF 393 renal
[28] = system: U251 CNS
[29] = system: T-47D breast
[30] = system: SF-295 CNS
[31] = system: MDA-N
[32] = system: SN12C renal
[33] = system: A549 NSCLC
[34] = system: SR leukemia
[35] = system: SK-MEL-5 melanoma
[36] = system: KM12 colon
[37] = system: IGROV1 ovarian
[38] = system: HCC-2998 colon
[39] = system: A498 renal
[40] = system: TK-10 renal
[41] = system: ACHN renal
[42] = system: SK-MEL-2 melanoma
[43] = system: DU-145 prostate
[44] = system: 786-0 renal
[45] = system: SF-268 CNS
[46] = system: MDA-MB-435
[47] = system: OVCAR-4 ovarian
[48] = system: MALME-3M melanoma
[49] = system: OVCAR-5 ovarian
[50] = system: CAKI-1 renal
[51] = system: UACC-62 melanoma
[52] = system: HL-60(TB) leukemia
[53] = system: SK-MEL-28 melanoma
[54] = system: UO-31 renal
[55] = system: COLO 205 colon
[56] = system: NCI-H23 lung
[57] = system: PC-3 prostate
[58] = system: HS 578T breast
[59] = system: LOX IMVI melanoma

O=C(O)c1c[nH]c2cc(OCc3ccccc3)ccc2c1=O
TGI [1]: 36.6 µM | TGI [2]: 34.5 µM | TGI [3]: 35.3 µM | TGI [4]: 32.5 µM | TGI [5]: 84 µM | TGI [6]: 31 µM | TGI [7]: 31.8 µM | TGI [8]: 31.4 µM | TGI [9]: 33.8 µM | TGI [10]: 48.6 µM | TGI [11]: 64.9 µM | TGI [12]: 35.3 µM | TGI [13]: 36.8 µM | TGI [14]: 54.3 µM | TGI [15]: 39.8 µM | TGI [16]: 35.1 µM | TGI [17]: 50.7 µM | TGI [18]: 30.8 µM | TGI [19]: 32.4 µM | TGI [20]: 37.8 µM | TGI [21]: 36.1 µM | TGI [22]: 40.5 µM | TGI [23]: 53.2 µM | TGI [24]: 35.9 µM | TGI [25]: 38.7 µM | TGI [26]: 33.3 µM | TGI [27]: 38.2 µM | TGI [28]: 36.1 µM | TGI [29]: 38.8 µM | TGI [30]: 34.4 µM | TGI [31]: 30.9 µM | TGI [32]: 32.2 µM | TGI [33]: 35.5 µM | TGI [34]: 53.8 µM | TGI [35]: 32 µM | TGI [36]: 33.8 µM | TGI [37]: 32.4 µM | TGI [38]: 32.2 µM | TGI [39]: 31.4 µM | TGI [40]: 39.6 µM | TGI [41]: 32.7 µM | TGI [42]: 33.3 µM | TGI [43]: 33.3 µM | TGI [44]: 32.5 µM | TGI [45]: 29.4 µM | TGI [46]: 30 µM | TGI [47]: 31.1 µM | TGI [48]: 31.7 µM | TGI [49]: 42.1 µM | TGI [50]: 40.1 µM | TGI [51]: 30.5 µM | TGI [52]: 2.32 µM | TGI [53]: 30.1 µM | TGI [54]: 31.1 µM | TGI [55]: 34.8 µM | TGI [56]: 33.3 µM | TGI [57]: 31.2 µM | TGI [58]: 45.2 µM

NCC(O)CSP(=O)(O)O (stereo not given)
TGI [1]: > 100 µM | TGI [2]: > 100 µM | TGI [3]: > 100 µM | TGI [4]: > 100 µM | TGI [5]: > 100 µM | TGI [59]: > 100 µM | TGI [6]: > 100 µM | TGI [7]: > 100 µM | TGI [8]: > 100 µM | TGI [9]: > 100 µM | TGI [10]: > 100 µM | TGI [11]: > 100 µM | TGI [12]: > 100 µM | TGI [14]: > 100 µM | TGI [15]: > 100 µM | TGI [16]: > 100 µM | TGI [17]: > 100 µM | TGI [18]: > 100 µM | TGI [19]: > 100 µM | TGI [20]: > 100 µM | TGI [21]: > 100 µM | TGI [22]: > 100 µM | TGI [23]: > 100 µM | TGI [24]: > 100 µM | TGI [25]: > 100 µM | TGI [26]: > 100 µM | TGI [27]: > 100 µM | TGI [28]: > 100 µM | TGI [29]: > 100 µM | TGI [30]: > 100 µM | TGI [31]: > 100 µM | TGI [32]: > 100 µM | TGI [33]: > 100 µM | TGI [34]: > 100 µM | TGI [35]: > 100 µM | TGI [36]: > 100 µM | TGI [37]: > 100 µM | TGI [39]: > 100 µM | TGI [40]: > 100 µM | TGI [41]: > 100 µM | TGI [42]: > 100 µM | TGI [43]: > 100 µM | TGI [44]: > 100 µM | TGI [45]: > 100 µM | TGI [46]: > 100 µM | TGI [47]: > 100 µM | TGI [48]: > 100 µM | TGI [49]: > 100 µM | TGI [50]: > 100 µM | TGI [51]: > 100 µM | TGI [52]: > 100 µM | TGI [53]: > 100 µM | TGI [54]: > 100 µM | TGI [55]: > 100 µM | TGI [56]: > 100 µM | TGI [57]: > 100 µM | TGI [58]: > 100 µM

— PubChem BioAssay (NCI)
